Data published in ChEMBL document CHEMBL4414655, “Position Effect of Fatty Acid Modification on the Cytotoxicity and Antimetastasis Potential of the Cytotoxic Peptide Lycosin-I” (J Med Chem, 2019).
The source made the active and inactive calls. No cut-off for these calls is given here. Residues, ends and D or L forms follow the SMILES beside them. *: point of attachment. Lauroyl = CCCCCCCCCCCC(=O)*

Tests used:
L02 = assay: Cytotoxicity in human L02 cells assessed as reduction in cell viability incubated for 24 hrs by CCK8 assay; format: cell-based; settings: L02, 24 h
A549 [1] = assay: Potency index, ratio of IC50 for lycosin-I to IC50 for test compound for cytotoxicity in human A549 cells assessed as reduction in cell viability at 0.78 to 50 uM incubated for 24 hrs by CCK8 assay; format: functional
A549 [2] = assay: Inhibition of spheroids growth in human A549 cells 3D tumor spheroids at 5 uM treated on day 0 and measured on day 5 by CCK8 assay; format: functional, cell-based
A549 [3] = assay: Inhibition of colony formation n human A549 cells incubated for 15 days by crystal violet staining based assay; format: functional, cell-based
A549 [4] = assay: Cytotoxicity in human A549 cells assessed as reduction in cell viability at 1.56 to 12.5 uM at 4 degC incubated for 24 hrs by CCK8 assay; format: functional, cell-based
[5] = Toxicity in mouse B16/F10 cells implanted BALB/C mouse assessed as effect on body weight at 8 mg/kg, ip dosed every other day for 10 days and measured every 5 days; format: organism-based; settings: in vivo
A549 [6] = assay: Cytotoxicity in human A549 cells assessed as reduction in cell viability at 1.56 to 12.5 uM at 37 degC incubated for 24 hrs by CCK8 assay; format: functional, cell-based
B16-F10 [7] = assay: Antitumor activity in mouse B16/F10 cells implanted in BALB/C mouse assessed as inhibition of tumor growth at 10 mg/kg, ip dosed every other day for 10 days and measured every 2 days; format: functional, organism-based
B16-F10 [8] = assay: Anti-metastasis activity in mouse B16/F10 cells implanted in BALB/C mouse assessed as inhibition of lung metastatic nodules at 8 mg/kg, ip dosed every other day for 10 days and measured every 2 days by H and E staining based assay; format: functional, organism-based
A549 [9] = assay: Induction of cell membrane disruption in human A549 cells at 4 uM incubated for 1 hr by AO/EB staining based fluorescence microscopy
B16-F10 [10] = assay: Cytotoxicity in mouse B16/F10 cells assessed as reduction in cell viability incubated for 24 hrs by CCK8 assay; format: functional, cell-based; settings: B16-F10, 24 h
SW-620 = assay: Cytotoxicity in human SW620 cells assessed as reduction in cell viability incubated for 24 hrs by CCK8 assay; format: functional, cell-based; settings: SW-620, 24 h
A549 [11] = assay: Cytotoxicity in human A549 cells assessed as reduction in cell viability by trypan blue staining method; format: functional, cell-based
Homo sapiens = organism: Homo sapiens; assay: Induction of cell membrane disruption in human erythrocytes cells assessed as induction of hemolysis at 0.098 to 50 uM incubated for 1 hr by fluorescence based assay relative to control; format: cell membranes
[12] = Toxicity in mouse B16/F10 cells implanted BALB/C mouse assessed as effect on body weight at 10 mg/kg, ip dosed every other day for 10 days and measured every 5 days; format: organism-based; settings: in vivo
HEK-293T = assay: Cytotoxicity in human HEK293T cells assessed as reduction in cell viability incubated for 24 hrs by CCK8 assay; format: cell-based; settings: Homo sapiens, HEK-293T
A549 [13] = assay: Cytotoxicity in human A549 cells assessed as reduction in cell viability incubated for 24 hrs by CCK8 assay; format: functional, cell-based; settings: A549, 24 h
B16-F10 [14] = assay: Anti-metastasis activity in mouse B16/F10 cells implanted in BALB/C mouse assessed as reduction in lung metastatic nodules at 8 mg/kg, ip dosed every other day for 10 days and measured every 2 days by H and E staining based assay; format: functional, organism-based
U-87 MG = assay: Cytotoxicity in human U87 cells assessed as reduction in cell viability incubated for 24 hrs by CCK8 assay; format: functional, cell-based, U-87MG ATCC
A549 [15] = assay: Induction of apoptosis in human A549 cells assessed as necrotic cells level at 2 uM incubated for 24 hrs by Annexin-V-FITC/PI staining based analysis (reference value: 2.27%); format: functional
A549 [16] = assay: Cytotoxicity in human A549 cells 3D tumor spheroids assessed as reduction in cell viability at 5 to 10 uM treated on day 0 and measured on day 5 by CCK8 assay; format: functional, cell-based
PC-3 = assay: Cytotoxicity in human PC3 cells assessed as reduction in cell viability incubated for 24 hrs by CCK8 assay; format: functional, cell-based; settings: PC-3, 24 h
A549 [17] = assay: Anti-migration activity in human A549 cells incubated for 12 hrs by crystal violet staining based transwell migration assay; format: functional, cell-based
A549 [18] = assay: Inhibition of spheroids growth in human A549 cells 3D tumor spheroids assessed as induction of physical shrinking and peripheral collapse at 10 uM treated on day 0 and measured on day 5; format: functional, cell-based
A549 [19] = assay: Induction of apoptosis in human A549 cells assessed as late apoptotic cells level at 2 uM incubated for 24 hrs by Annexin-V-FITC/PI staining based analysis (reference value: 2.27%); format: functional
A549 [20] = assay: Induction of apoptosis in human A549 cells assessed as induction of caspase-3 activation at 2 uM incubated for 24 hrs using Ac-DEVD-pNA substrate; format: functional, cell-based
[21] = Stability in mouse serum at 100 uM incubated for 24 hrs at 37 degC by MALDI-TOF MS analysis; format: ADME, cell-free
A549 [22] = assay: Anti-migration activity in human A549 cells 3D tumor spheroids assessed as reduction in cell migration at 2.5 to 10 uM incubated for 48 hrs by gelatin based 3D spheroid based metastasis assay; format: functional
A549 [23] = assay: Cytotoxicity in human A549 cells assessed as reduction in cell viability at 1 uM incubated for 24 hrs by CCK8 assay; format: functional, cell-based
A549 [24] = assay: Induction of cell membrane disruption in human A549 cells assessed as LDH release at 3.1 uM incubated for 30 mins by fluorescence based assay relative to control
MCF7 = assay: Cytotoxicity in human MCF7 cells assessed as reduction in cell viability incubated for 24 hrs by CCK8 assay; format: functional, cell-based; settings: MCF7, 24 h
A549 [25] = assay: Anti-invasion activity in human A549 cells at 0.5 to 1 uM incubated for 12 hrs by crystal violet staining based Matrigel coated transwell invasion assay; format: functional, cell-based
HeLa = assay: Cytotoxicity in human HeLa cells assessed as reduction in cell viability incubated for 24 hrs by CCK8 assay; format: functional, cell-based
A549 [26] = assay: Induction of cell membrane disruption in human A549 cells assessed as shrunken morphology with membrane lysis at 4 uM incubated for 24 hrs by scanning electron microscopy; format: cell-based
A549 [27] = assay: Cytotoxicity in human A549 cells assessed as reduction in cell viability at 0.39 to 25 uM pre-incubated in presence of 10% FBS for 48 hrs and measured after 24 hrs by CCK8 assay; format: functional, cell-based
A549 [28] = assay: Induction of cell membrane disruption in human A549 cells at 4 uM incubated for 24 hrs by scanning electron microscopy; format: cell-based
A549 [29] = assay: Induction of cell membrane disruption in human A549 cells assessed as LDH release at 3.25 uM incubated for 30 mins by fluorescence based assay relative to control
A549 [30] = assay: Induction of apoptosis in human A549 cells assessed as early apoptotic cells level at 2 uM incubated for 24 hrs by Annexin-V-FITC/PI staining based analysis (reference value: 2.27%); format: functional
A549 [31] = assay: Inhibition of colony formation n human A549 cells up to 10 uM incubated for 15 days by crystal violet staining based assay; format: functional, cell-based
A549 [32] = assay: Anti-migration activity in human A549 cells 3D tumor spheroids assessed as reduction in cell migration at 20 uM incubated for 48 hrs by gelatin based 3D spheroid based metastasis assay; format: functional
A549 [33] = assay: Inhibition of spheroids growth in human A549 cells 3D tumor spheroids at 10 to 20 uM treated on day 0 and measured on day 5 by CCK8 assay; format: functional, cell-based
A549 [34] = assay: Induction of cell membrane disruption in human A549 cells assessed as LDH release at 25 uM incubated for 30 mins by fluorescence based assay relative to control
A549 [35] = assay: Anti-migration activity in human A549 cells at 0.5 to 1 uM incubated for 12 hrs by crystal violet staining based transwell migration assay; format: functional, cell-based

Row | Compound | IC50 (L02) [µM] | TGI (B16-F10 [7]) | inhibition (B16-F10 [8]) | Activity (A549 [9]) | IC50 (SW-620) [µM] | Activity [12] | IC50 (HEK-293T) [µM] | IC50 (A549 [13]) [µM] | IC50 (U-87 MG) [µM] | Activity (A549 [15]) [%] | IC50 (PC-3) [µM] | Activity (A549 [19]) [%] | Stability [21] | IC50 (MCF7) [µM] | Activity (A549 [25]) | IC50 (HeLa) [µM] | Activity (A549 [27]) | Activity (A549 [28]) | Activity (A549 [29]) [%] | Activity (A549 [30]) [%] | also measured
1 | CCCCCCCCCCCC(=O)N[C@@H](CCCCN)C(=O)NCC(=O)N[C@@H](Cc1c[nH]c2ccccc12)C(=O)N[C@@H](Cc1ccccc1)C(=O)N[C@@H](CCCCN)C(=O)N[C@@H](C)C(=O)N[C@@H](CCSC)C(=O)N[C@@H](CCCCN)C(=O)N[C@@H](CO)C(=O)N[C@H](C(=O)N[C@@H](C)C(=O)N[C@@H](CCCCN)C(=O)N[C@@H](Cc1ccccc1)C(=O)N[C@H](C(=O)N[C@@H](C)C(=O)N[C@@H](CCCCN)C(=O)N[C@@H](CCC(=O)O)C(=O)N[C@@H](CCCCN)C(=O)N[C@@H](CC(C)C)C(=O)N[C@@H](CCCCN)C(=O)N[C@@H](CCC(=O)O)C(=O)N[C@@H](Cc1cnc[nH]1)C(=O)N[C@@H](CC(C)C)C(=O)O)[C@@H](C)CC)[C@@H](C)CC (Lauroyl-KGWFKAMKSIAKFIAKEKLKEHL-OH) | 3.9 | Active | Active | Active | 2 | Non-Toxic | 2.2 | 2.2 to 2.6 | 1.9 | 31.84 | 2.2 | 10.88 | Stable | 1.7 | Dose-dependent effect | 2.8 | Active | Active | 59.4 | 0.91 | Ratio IC50 (A549 [1]): 4 - 15; growth inhibition (GI) (A549 [2]): Active; inhibition (A549 [3]): Dose-dependent effect; Activity (A549 [4]): inactive; Activity [5]: Non-Toxic; Activity (A549 [6]): Active; IC50 (B16-F10 [10]): 2 µM; Activity (A549 [11]): Active; Activity (Homo sapiens): Active; inhibition (B16-F10 [14]): Active; growth inhibition (GI) (A549 [16]): Active; Activity (A549 [17]): Dose-dependent effect; growth inhibition (GI) (A549 [18]): Active; Activity (A549 [20]): Active; Activity (A549 [22]): Active; Activity (A549 [23]): inactive; Activity (A549 [24]): 55%; Activity (A549 [26]): Active
2 | H-KGWFKAMKSIAKFIAKEKLKEHL-OH | 42.1 | inactive | inactive | inactive | 13.7 | Non-Toxic | 27.9 | 22.9 | 19.9 | 1.97 | 11 | 3.37 | Unstable | 20.1 | inactive | 26.3 | inactive | inactive | 5.1 | 0.48 | inhibition (A549 [31]): inactive; Activity (A549 [32]): Active; growth inhibition (GI) (A549 [33]): inactive; Activity (A549 [34]): 37%; Activity (A549 [35]): inactive
